Reference: the NIST ThermoML archive (doi:10.1007/s10765-006-0110-x)
Numbers after ± are expanded uncertainties.

Settings: Liquid, Pulse-echo method

COCCOC [1,2-dimethoxyethane]
speed of sound [m/s]
Settings	293.15 K	303.15 K	313.15 K	323.15 K	333.15 K	343.15 K	353.15 K
100 kPa	1188.5 ± 4.8	1144.8 ± 4.6	1101.9 ± 4.4	1059.4 ± 4.3	1016.5 ± 4.1	974.9 ± 3.9	932.8 ± 3.8
10000 kPa	1242 ± 5	1201.1 ± 4.8	1161.1 ± 4.7	1122.4 ± 4.5	1083.1 ± 4.4	1044.7 ± 4.2	1005.8 ± 4.1
20000 kPa	1292.4 ± 5.2	1252.2 ± 5	1215.2 ± 4.9	1178.7 ± 4.8	1142.7 ± 4.6	1107 ± 4.5	1070 ± 4.3
30000 kPa	1336.4 ± 5.4	1299.6 ± 5.2	1263.9 ± 5.1	1229.3 ± 5	1195.2 ± 4.8	1161.4 ± 4.7	1127.3 ± 4.5
40000 kPa	1378.8 ± 5.6	1343.2 ± 5.4	1309.2 ± 5.3	1275.9 ± 5.1	1243.6 ± 5	1211.6 ± 4.9	1178.9 ± 4.8
50000 kPa	1418.2 ± 5.7	1384.1 ± 5.6	1350.7 ± 5.4	1319.6 ± 5.3	1288.4 ± 5.2	1257.6 ± 5.1	1226.3 ± 4.9
60000 kPa	1455.6 ± 5.9	1422.5 ± 5.7	1390.5 ± 5.6	1361.5 ± 5.5	1330.1 ± 5.4	1300.5 ± 5.2	1270.4 ± 5.1
70000 kPa	1490.4 ± 6	1458 ± 5.9	1428.3 ± 5.8	1398.6 ± 5.6	1369.3 ± 5.5	1340.5 ± 5.4	1311.3 ± 5.3
80000 kPa	1523.9 ± 6.1	1492.6 ± 6	1463.3 ± 5.9	1434.7 ± 5.8	1406.4 ± 5.7	1378.6 ± 5.6	1350.2 ± 5.4
90000 kPa	1555.7 ± 6.3	1525.7 ± 6.1	1497 ± 6	1468.9 ± 5.9	1441.3 ± 5.8	1414.5 ± 5.7	1387 ± 5.6
100000 kPa	1586.1 ± 6.4	1557.2 ± 6.3	1528.8 ± 6.2	1501.5 ± 6	1474.8 ± 5.9	1448.7 ± 5.8	1421.7 ± 5.7

COCCOCCOC [2,5,8-trioxanonane]
speed of sound [m/s]
Settings	293.15 K	303.15 K	313.15 K	323.15 K	333.15 K	343.15 K	353.15 K
100 kPa	1298.9 ± 5.3	1259.3 ± 5.1	1219.9 ± 4.9	1180.9 ± 4.8	1142.4 ± 4.6	1104.2 ± 4.5	1066.6 ± 4.3
10000 kPa	1344.9 ± 5.4	1306.7 ± 5.3	1269.5 ± 5.1	1232.5 ± 5	1196.4 ± 4.8	1160.8 ± 4.7	1125.7 ± 4.6
20000 kPa	1386.5 ± 5.6	1350.6 ± 5.5	1315.4 ± 5.3	1280.2 ± 5.2	1246 ± 5	1212 ± 4.9	1179.3 ± 4.8
30000 kPa	1426.6 ± 5.8	1392 ± 5.6	1357.6 ± 5.5	1324.4 ± 5.4	1291.4 ± 5.2	1259.5 ± 5.1	1228.1 ± 5
40000 kPa	1463.9 ± 5.9	1430.4 ± 5.8	1397.8 ± 5.7	1365.5 ± 5.5	1333.7 ± 5.4	1303.1 ± 5.3	1273.4 ± 5.2
50000 kPa	1499.2 ± 6.1	1466.9 ± 5.9	1435.3 ± 5.8	1404 ± 5.7	1373.6 ± 5.6	1343.9 ± 5.4	1314.9 ± 5.3
60000 kPa	1532.5 ± 6.2	1501.5 ± 6.1	1470.5 ± 5.9	1440.6 ± 5.8	1410.9 ± 5.7	1382.1 ± 5.6	1354.4 ± 5.5
70000 kPa	1565.1 ± 6.3	1534.3 ± 6.2	1504.4 ± 6.1	1475.2 ± 6	1446.2 ± 5.8	1418.6 ± 5.7	1391.3 ± 5.6
80000 kPa	1595.5 ± 6.4	1565.8 ± 6.3	1536.7 ± 6.2	1508.2 ± 6.1	1480.1 ± 6	1452.9 ± 5.9	1426.7 ± 5.8
90000 kPa	1624.9 ± 6.6	1595.9 ± 6.4	1567.6 ± 6.3	1539.8 ± 6.2	1512.3 ± 6.1	1485.9 ± 6	1460.4 ± 5.9
100000 kPa	1653.4 ± 6.7	1625.1 ± 6.6	1597 ± 6.4	1569.9 ± 6.3	1543.1 ± 6.2	1517.4 ± 6.1	1492.3 ± 6
